Results reported in publication PMC9037111, “Structure-based design, synthesis, and biological evaluation of novel piperine–resveratrol hybrids as antiproliferative agents targeting SIRT-2” (RSC Advances, 2021).
Where two headings read alike, the source gives them in different places.

Tests used:
SIRT2 [1] = molecular target: T1, SIRT2 (Homo sapiens, UniProt Q8IXJ6); assay: sirtuin deacetylase inhibition assay, % inhibition at […] ([…] at […]); format: biochemical
T1 sequence (Q8IXJ6 2-389): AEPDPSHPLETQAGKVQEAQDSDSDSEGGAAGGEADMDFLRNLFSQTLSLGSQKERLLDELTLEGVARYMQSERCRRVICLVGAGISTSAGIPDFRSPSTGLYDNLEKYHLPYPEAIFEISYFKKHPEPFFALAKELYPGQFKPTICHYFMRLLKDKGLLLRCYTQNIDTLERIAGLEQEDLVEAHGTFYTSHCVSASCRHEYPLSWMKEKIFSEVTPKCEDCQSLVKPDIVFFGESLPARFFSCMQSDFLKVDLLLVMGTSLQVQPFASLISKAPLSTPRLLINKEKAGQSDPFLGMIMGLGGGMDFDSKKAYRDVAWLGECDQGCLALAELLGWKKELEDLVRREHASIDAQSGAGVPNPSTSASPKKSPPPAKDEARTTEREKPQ

BT-549 = assay: cells; set-up: species or system NCI-60 human tumour cell lines; NCI-60 one-dose screen at 10 uM, percent growth inhibition versus untreated control cells; conditions: Homo sapiens, BT-549; growth inhibition, one dose; read-out: Growth% inhibition / 5c
Experimental: (§1) The antiproliferative activity of the target compounds 5a–h was screened against a panel of 60 cancer cell lines according to NCI-guidelines at concentration of 10 μM. The results for each compound (Table 1) were recorded as the percent of growth inhibition of treated cells compared to untreated control cells. […] In addition, 5b recorded significant activity against leukemia cancer cell lines K-562 and MOLT-4, Non-small cell lung cancer cell lines NCI-H322M and NCI-H460, Colon cancer cell lines COLO 205, HCT-15 and HCT-116, CNS cancer cell lines SF-295 and SF-539, Melanoma cancer cell lines LOX IMVI and UACC-62, Ovarian cancer cell lines NCI/ADR-RES, OVCAR-3, and OVCAR-4, Renal cancer cell lines CAKI-1, ACHN, and UO-31, and Breast cancer MCF7 cell line with growth inhibition percentage between 80 to 95. […] The methodology of the NCI anticancer screening has been described in detail elsewhere (https://dtp.cancer.gov/).[52]

CCRF-CEM = assay: cells; set-up: species or system NCI-60 human tumour cell lines; NCI-60 one-dose screen at 10 uM, percent growth inhibition versus untreated control cells; conditions: Homo sapiens, CCRF-CEM; growth inhibition, one dose; read-out: Growth% inhibition / 5c
Experimental: as §1

K-562 = assay: cells; set-up: species or system NCI-60 human tumour cell lines; NCI-60 one-dose screen at 10 uM, percent growth inhibition versus untreated control cells; conditions: Homo sapiens, K562; growth inhibition, one dose; read-out: Growth% inhibition / 5c
Experimental: as §1

MCF7 = assay: cells; set-up: species or system NCI-60 human tumour cell lines; NCI-60 one-dose screen at 10 uM, percent growth inhibition versus untreated control cells; conditions: Homo sapiens, MCF7; growth inhibition, one dose; read-out: Growth% inhibition / 5c
Experimental: as §1

NCI-H226 = assay: cells; set-up: species or system NCI-60 human tumour cell lines; NCI-60 one-dose screen at 10 uM, percent growth inhibition versus untreated control cells; conditions: Homo sapiens, NCI-H226, growth inhibition, one dose
Experimental: as §1

NCI-H322M = assay: cells; set-up: species or system NCI-60 human tumour cell lines; NCI-60 one-dose screen at 10 uM, percent growth inhibition versus untreated control cells; conditions: Homo sapiens, NCI-H322M; growth inhibition, one dose; read-out: Growth% inhibition / 5c
Experimental: as §1

NCI-H522 = assay: cells; set-up: species or system NCI-60 human tumour cell lines; NCI-60 one-dose screen at 10 uM, percent growth inhibition versus untreated control cells; conditions: Homo sapiens, NCI-H522; growth inhibition, one dose; read-out: Growth% inhibition / 5c
Experimental: as §1

RPMI-8226 = assay: cells; set-up: species or system NCI-60 human tumour cell lines; NCI-60 one-dose screen at 10 uM, percent growth inhibition versus untreated control cells; conditions: Homo sapiens, RPMI-8226; growth inhibition, one dose; read-out: Growth% inhibition / 5c
Experimental: as §1

SF-539 = assay: cells; set-up: species or system NCI-60 human tumour cell lines; NCI-60 one-dose screen at 10 uM, percent growth inhibition versus untreated control cells; conditions: Homo sapiens, SF-539; growth inhibition, one dose; read-out: Growth% inhibition / 5c
Experimental: as §1

T-47D = assay: cells; set-up: species or system NCI-60 human tumour cell lines; NCI-60 one-dose screen at 10 uM, percent growth inhibition versus untreated control cells; conditions: Homo sapiens, T47D; growth inhibition, one dose; read-out: Growth% inhibition / 5c
Experimental: as §1

UACC-62 = assay: cells; set-up: species or system NCI-60 human tumour cell lines; NCI-60 one-dose screen at 10 uM, percent growth inhibition versus untreated control cells; conditions: Homo sapiens, UACC-62, growth inhibition, one dose
Experimental: as §1

UO-31 = assay: cells; set-up: species or system NCI-60 human tumour cell lines; NCI-60 one-dose screen at 10 uM, percent growth inhibition versus untreated control cells; conditions: Homo sapiens, UO-31, growth inhibition, one dose
Experimental: as §1

SIRT1 = molecular target: T2, SIRT1 (Homo sapiens, UniProt Q96EB6); assay: biochemical; set-up: Sirtuin-TK assay, percent inhibition of human SIRT1 or SIRT2 at 5 and 50 uM
T2 sequence (Q96EB6 2-747): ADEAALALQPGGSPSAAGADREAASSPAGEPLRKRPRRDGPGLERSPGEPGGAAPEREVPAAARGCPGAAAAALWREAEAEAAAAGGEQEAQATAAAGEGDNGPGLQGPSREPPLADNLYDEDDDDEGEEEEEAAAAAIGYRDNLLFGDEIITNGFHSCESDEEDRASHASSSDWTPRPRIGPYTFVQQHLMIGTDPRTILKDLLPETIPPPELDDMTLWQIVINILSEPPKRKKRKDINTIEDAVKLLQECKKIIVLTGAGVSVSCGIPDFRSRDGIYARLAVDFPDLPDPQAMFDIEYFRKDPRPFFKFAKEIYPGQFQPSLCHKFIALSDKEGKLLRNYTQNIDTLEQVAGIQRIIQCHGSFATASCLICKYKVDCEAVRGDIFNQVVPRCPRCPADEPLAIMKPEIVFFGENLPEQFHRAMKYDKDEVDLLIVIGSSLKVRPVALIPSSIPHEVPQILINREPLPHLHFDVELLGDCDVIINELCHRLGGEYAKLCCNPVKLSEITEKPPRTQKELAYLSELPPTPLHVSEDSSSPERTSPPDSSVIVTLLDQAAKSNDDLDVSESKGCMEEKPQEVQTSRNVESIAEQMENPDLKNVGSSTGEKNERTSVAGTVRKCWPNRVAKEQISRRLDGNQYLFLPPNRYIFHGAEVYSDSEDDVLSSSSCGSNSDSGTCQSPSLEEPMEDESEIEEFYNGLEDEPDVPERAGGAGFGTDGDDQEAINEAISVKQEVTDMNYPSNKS
Experimental: (§2) Sirtuin-TK assay was performed to estimate the Sirtuins inhibitory potential of 5a–h (Tables 2 and 3). The results of this test strongly complemented the findings of cancer cell-based assessments. […] Of the 8 compounds evaluated, 3 analogs (5b, 5e and 5h) were more likely to inhibit Sirt2 (>70% inhibition) than Sirt1 (<50% inhibition) at 50 μM. The other compounds were poor inhibitors of both enzymes. […] 4.2.2. Sirtuin inhibitory assay

SIRT2 [2] = molecular target: T1, SIRT2; assay: biochemical; set-up: Sirtuin-TK assay, percent inhibition of human SIRT1 or SIRT2 at 5 and 50 uM
Experimental: as §2

SIRT2 [3] = molecular target: T1, SIRT2; assay: sirtuin deacetylase inhibition assay, % inhibition at […] ([…] at […]); format: biochemical; remark: listed apart in the source
CAKI-1 = assay: cells; set-up: species or system NCI-60 human tumour cell lines; NCI-60 one-dose screen at 10 uM, percent growth inhibition versus untreated control cells; conditions: Homo sapiens, CAKI-1; growth inhibition, one dose; read-out: Growth% inhibition / 5f
Experimental: as §1

HOP-92 = assay: cells; set-up: species or system NCI-60 human tumour cell lines; NCI-60 one-dose screen at 10 uM, percent growth inhibition versus untreated control cells; conditions: Homo sapiens, HOP-92; growth inhibition, one dose; read-out: Growth% inhibition / 5f
Experimental: as §1

IGROV1 = assay: cells; set-up: species or system NCI-60 human tumour cell lines; NCI-60 one-dose screen at 10 uM, percent growth inhibition versus untreated control cells; conditions: Homo sapiens, IGROV-1, growth inhibition, one dose
Experimental: as §1

SNB-75 = assay: cells; set-up: species or system NCI-60 human tumour cell lines; NCI-60 one-dose screen at 10 uM, percent growth inhibition versus untreated control cells; conditions: Homo sapiens, SNB-75, growth inhibition, one dose
Experimental: as §1

SR = assay: cells; set-up: species or system NCI-60 human tumour cell lines; NCI-60 one-dose screen at 10 uM, percent growth inhibition versus untreated control cells; conditions: Homo sapiens, SR; growth inhibition, one dose; read-out: Growth% inhibition / 5f
Experimental: as §1

SIRT2 [4] = molecular target: T1, SIRT2; assay: sirtuin deacetylase inhibition assay, % inhibition at […] ([…] at […]); format: biochemical; remark: listed apart in the source
LOX IMVI = assay: cells; set-up: species or system NCI-60 human tumour cell lines; NCI-60 one-dose screen at 10 uM, percent growth inhibition versus untreated control cells; conditions: Homo sapiens, LOX IMVI; growth inhibition, one dose; read-out: Growth% inhibition / 5g
Experimental: as §1

[5] = read-out: Growth% inhibition / 5c
[6] = read-out: Growth% inhibition / 5f
[7] = read-out: Growth% inhibition / 5g

COc1cc(C=NNC(=O)/C=C/C=C/c2ccc3c(c2)OCO3)ccc1O [5c, (2E,4E)-5-(Benzo[d][1,3]dioxol-5-yl)-N′-((E,Z)-4-hydroxy-3-methoxybenzylidene)penta-2,4-dienehydrazide]
inhibition at 50 µM (SIRT2 [1]): 58 ± 3%
inhibition at 10 µM (BT-549): 13.6%
inhibition at 10 µM (CCRF-CEM): 12.1%
inhibition at 10 µM (K-562): 10.5%
inhibition at 10 µM (MCF7): 20.1%
inhibition at 10 µM (NCI-H226; [5]): 18.3%
inhibition at 10 µM (NCI-H322M): 14.7%
inhibition at 10 µM (NCI-H522): 22%
inhibition at 10 µM (RPMI-8226): 15.3%
inhibition at 10 µM (SF-539): 15.3%
inhibition at 10 µM (T-47D): 19.8%
inhibition at 10 µM (UACC-62; [5]): 11.3%
inhibition at 10 µM (UO-31; [5]): 14%
inhibition at 5 µM (SIRT1): 12 ± 1%
inhibition at 50 µM (SIRT1): 38 ± 3%
inhibition at 5 µM (SIRT2 [2]): 17 ± 3%

O=C(/C=C/C=C/c1ccc2c(c1)OCO2)NN=C(c1ccc(F)cc1)c1ccc(F)cc1 [5f, (2E,4E)-5-(Benzo[d][1,3]dioxol-5-yl)-N′-(bis(4-fluorophenyl)methylene)penta-2,4-dienehydrazide]
inhibition at 50 µM (SIRT2 [3]): 69 ± 3%
inhibition at 10 µM (CAKI-1): 12.8%
inhibition at 10 µM (HOP-92): 13.8%
inhibition at 10 µM (IGROV1; [6]): 12.1%
inhibition at 10 µM (SNB-75; [6]): 16.6%
inhibition at 10 µM (SR): 36.3%
inhibition at 10 µM (UACC-62; [6]): 12.2%
inhibition at 10 µM (UO-31; [6]): 18.3%
inhibition at 5 µM (SIRT1): 14 ± 4%
inhibition at 50 µM (SIRT1): 39 ± 3%
inhibition at 5 µM (SIRT2 [2]): 20 ± 4%

CC(C)(C)c1cc(/C=N/NC(=O)/C=C/C=C/c2ccc3c(c2)OCO3)c(O)c(C(C)(C)C)c1 [5g, (2E,4E)-5-(Benzo[d][1,3]dioxol-5-yl)-N′-((E)-3,5-di-tert-butyl-2-hydroxy-benzylidene)penta-2,4-dienehydrazide]
inhibition at 50 µM (SIRT2 [4]): 55 ± 1%
inhibition at 10 µM (IGROV1; [7]): 14.1%
inhibition at 10 µM (LOX IMVI): 12.1%
inhibition at 10 µM (NCI-H226; [7]): 10.1%
inhibition at 10 µM (SNB-75; [7]): 33%
inhibition at 10 µM (UO-31; [7]): 27.9%
inhibition at 5 µM (SIRT1): 9 ± 2%
inhibition at 50 µM (SIRT1): 35 ± 1%
inhibition at 5 µM (SIRT2 [2]): 19 ± 2%
